Data taken from publication PMC10026764, “Overcoming the imatinib-resistant BCR-ABL mutants with new ureidobenzothiazole chemotypes endowed with potent and broad-spectrum anticancer activity” (Journal of Enzyme Inhibition and Medicinal Chemistry, 2023).

Experiments:
[1] = target: ABL^F317I (Homo sapiens, UniProt P00519, F317I); experiment: In vitro enzymatic activity, imatinib-resistant mutant panel; type: biochemical
[2] = system: HL-60(TB); parameters: method as in earlier work; conditions: imatinib mesylate NSC 743414, NCI data; cited from earlier work
[3] = system: HOP-92; parameters: method as in earlier work; conditions: imatinib mesylate NSC 743414, NCI data; cited from earlier work
[4] = system: NCI-H322M; parameters: method as in earlier work; conditions: imatinib mesylate NSC 743414, NCI data; cited from earlier work
[5] = system: SF-539; parameters: method as in earlier work; conditions: imatinib mesylate NSC 743414, NCI data; cited from earlier work
[6] = system: LOX IMVI; parameters: method as in earlier work; conditions: imatinib mesylate NSC 743414, NCI data; cited from earlier work
[7] = system: SK-MEL-5; parameters: method as in earlier work; conditions: imatinib mesylate NSC 743414, NCI data; cited from earlier work
[8] = system: OVCAR-8; parameters: method as in earlier work; conditions: imatinib mesylate NSC 743414, NCI data; cited from earlier work
[9] = system: NCI/ADR-RES; parameters: method as in earlier work; conditions: imatinib mesylate NSC 743414, NCI data; cited from earlier work
[10] = system: TK-10; parameters: method as in earlier work; conditions: imatinib mesylate NSC 743414, NCI data; cited from earlier work
[11] = system: HS 578T; parameters: method as in earlier work; conditions: imatinib mesylate NSC 743414, NCI data; cited from earlier work

ABL^F317I, sequence (P00519 whole entry F317I): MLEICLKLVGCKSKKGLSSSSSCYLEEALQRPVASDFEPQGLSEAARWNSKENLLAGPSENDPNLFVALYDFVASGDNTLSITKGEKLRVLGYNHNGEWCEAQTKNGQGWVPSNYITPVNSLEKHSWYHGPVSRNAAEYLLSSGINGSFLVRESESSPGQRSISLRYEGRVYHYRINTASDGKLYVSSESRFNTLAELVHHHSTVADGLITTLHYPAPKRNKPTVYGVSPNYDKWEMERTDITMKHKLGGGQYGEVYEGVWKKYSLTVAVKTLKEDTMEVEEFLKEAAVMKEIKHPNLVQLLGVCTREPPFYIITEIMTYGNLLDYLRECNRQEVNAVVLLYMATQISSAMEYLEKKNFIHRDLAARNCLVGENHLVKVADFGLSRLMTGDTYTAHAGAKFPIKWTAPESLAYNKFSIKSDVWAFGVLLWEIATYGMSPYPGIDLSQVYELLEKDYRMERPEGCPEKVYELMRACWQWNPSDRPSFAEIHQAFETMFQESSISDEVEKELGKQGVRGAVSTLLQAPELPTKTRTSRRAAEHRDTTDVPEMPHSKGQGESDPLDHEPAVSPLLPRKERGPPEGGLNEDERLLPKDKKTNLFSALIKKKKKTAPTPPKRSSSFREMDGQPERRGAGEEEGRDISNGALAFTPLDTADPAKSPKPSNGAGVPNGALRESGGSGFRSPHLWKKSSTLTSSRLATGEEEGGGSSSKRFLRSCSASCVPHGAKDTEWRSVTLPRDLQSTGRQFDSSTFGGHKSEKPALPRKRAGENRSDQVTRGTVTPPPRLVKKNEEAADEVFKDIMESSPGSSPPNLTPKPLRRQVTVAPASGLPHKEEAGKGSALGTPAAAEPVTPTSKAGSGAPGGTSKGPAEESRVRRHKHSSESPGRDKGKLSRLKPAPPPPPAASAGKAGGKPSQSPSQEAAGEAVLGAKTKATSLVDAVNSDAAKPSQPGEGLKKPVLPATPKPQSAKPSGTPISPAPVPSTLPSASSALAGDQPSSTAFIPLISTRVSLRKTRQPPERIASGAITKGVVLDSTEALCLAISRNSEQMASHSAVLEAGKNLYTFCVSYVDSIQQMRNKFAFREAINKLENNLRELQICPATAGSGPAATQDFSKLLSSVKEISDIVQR

Row | Structure (SMILES) | IC50 [1] [µM] | GI50 [2] [µM] | GI50 [3] [µM] | GI50 [4] [µM] | GI50 [5] [µM] | GI50 [6] [µM] | GI50 [7] [µM] | GI50 [8] [µM] | GI50 [9] [µM] | GI50 [10] [µM] | GI50 [11] [µM]
1 | CCN1CCN(c2ccc(NC(=O)Nc3nc4ccc(-c5ccccc5OC)cc4s3)cc2)CC1 [Compound 2b] | 0.00516 |  |  |  |  |  |  |  |  |  | 
2 | Cc1ccc(NC(=O)c2ccc(CN3CCN(C)CC3)cc2)cc1Nc1nccc(-c2cccnc2)n1 [Imatinib] |  | 13.5 | 13.3 | 22.8 | 10.6 | 18.1 | 12.1 | 27.7 | 23 | 26.9 | 14.6
